What was measured:
[1] = system: SMN2 minigene (full length SMN2 minigene mRNA containing SMN2 exon 7); assay: SMN2 minigene mRNA splicing RT-qPCR assay in cultured cells; format: cell-based, human; details: Homo sapiens, HEK293-H; HEK293H cells stably transfected with SMN2-A minigene; 24 hours; 7-point concentration curve; 1.5-fold relative to vehicle-treated cells; read-out: EC1.5x for production of full length SMN2 mRNA
Procedure, shortened: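 HEK293H cells stably carrying the SMN2-A minigene treated 24 h at 37° C with compound (DMSO, 200× stock), then lysed. Multiplex RT-qPCR (SMN primers 0.4 μM final; 40 cycles) measures full-length exon 7-containing minigene mRNA, normalized to GAPDH and to vehicle; EC1.5x derived and binned by stars.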

Smn protein = Smn protein assay in cultured cells (SMN HTRF); format: cell-based, human; details: 48 hours; for maximum fold (Fold) increase of Smn protein: SMA patient fibroblast cells, 7-point concentration data, fold increase relative to vehicle control (SMN HTRF); for EC1.5x (concentration giving 1.5-fold Smn protein increase): SMA Type 1 patient fibroblast cells (GM03813), 7-point concentration curve, SMN HTRF, concentration producing 1.5 times Smn protein vs DMSO vehicle control, read-out: EC1.5x for Smn protein expression
Procedure, shortened: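 Lysates in RIPA with protease inhibitors are incubated overnight at room temperature with HTRF anti-SMN antibodies. EC1.5x is derived from fold increase in ΔF over vehicle.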

| SMILES | melting point | EC (1.5-fold) [1] [µM] | maximum fold (Fold) increase of Smn protein (Smn protein) | EC1.5x (concentration giving 1.5-fold Smn protein increase) (Smn protein) [nM] |
| --- | --- | --- | --- | --- |
| Cc1nccn2cc(-c3cc4ccc(O[C@@H]5CCNC5)cc4oc3=O)nc12 [Compound 610, 3-(8-methylimidazo[1,2-a]pyrazin-2-yl)-7-[(3R)-pyrrolidin-3-yloxy]-2H-chromen-2-one] | 220 to 230 °C | 0.3 to 1 | ** (fold increase between >1.2 and ≤1.35) | – |
| Cc1cc(F)c2nc(-c3cc4ccc(N5CCN[C@H](C)C5)cc4oc3=O)cn2c1 [Compound 420, 3-(8-fluoro-6-methylimidazo[1,2-a]pyridin-2-yl)-7-[(3R)-3-methylpiperazin-1-yl]-2H-chromen-2-one] | 246 to 254 °C | < 0.1 | **** (fold increase between >1.5 and ≤1.65) | < 300 |
| Cc1nccn2cc(-c3cc4ccc(N5CCN[C@@H](C)C5)cc4oc3=O)cc12 [Compound 566, 7-[(3S)-3-methylpiperazin-1-yl]-3-(1-methylpyrrolo[1,2-a]pyrazin-7-yl)-2H-chromen-2-one] | 184 to 186 °C | < 0.1 | **** (fold increase between >1.5 and ≤1.65) | < 300 |
| Cc1cc(F)c2nc(-c3cc4ccc(N[C@H]5CCNC5)cc4oc3=O)cn2c1 [Compound 582, 3-(8-fluoro-6-methylimidazo[1,2-a]pyridin-2-yl)-7-[(3S)-pyrrolidin-3-ylamino]-2H-chromen-2-one] | 230 to 240 °C | 0.3 to 1 | ** (fold increase between >1.2 and ≤1.35) | – |
| C[C@@H]1CN(c2ccc3cc(-c4cn5ccncc5n4)c(=O)oc3c2)C[C@H](C)N1 [Compound 417, 7-[(3R,5S)-3,5-dimethylpiperazin-1-yl]-3-(imidazo[1,2-a]pyrazin-2-yl)-2H-chromen-2-one] | 248 to 250 °C | 0.1 to 0.3 | *** (fold increase between >1.35 and ≤1.5) | < 300 |
| CN1CCN(c2ccc3cc(-c4cn5ccccc5n4)c(=O)oc3c2)CC1 [Compound 72, 3-(imidazo[1,2-a]pyridin-2-yl)-7-(4-methylpiperazin-1-yl)-2H-chromen-2-one] | 265 to 268 °C | 0.3 to 1 | *** (fold increase between >1.35 and ≤1.5) | 300 to 1000 |
| C[C@@H]1CN(c2ccc3cc(-c4cn5ccccc5n4)c(=O)oc3c2)C[C@H](C)N1 [Compound 139, 7-[(3R,5S)-3,5-dimethylpiperazin-1-yl]-3-(imidazo[1,2-a]pyridin-2-yl)-2H-chromen-2-one] | 261 °C (dec.) | 1 to 3 | *** (fold increase between >1.35 and ≤1.5) | – |
| C[C@H]1CN(c2ccc3cc(-c4cn5cccc(F)c5n4)c(=O)oc3c2)CCN1C [Compound 585, 7-[(3S)-3,4-dimethylpiperazin-1-yl]-3-(8-fluoroimidazo[1,2-a]pyridin-2-yl)-2H-chromen-2-one] | 188 to 192 °C | 0.3 to 1 | *** (fold increase between >1.35 and ≤1.5) | – |

Now from value to molecule, other results behind:

| melting point | SMILES | EC (1.5-fold) [1] [µM] | maximum fold (Fold) increase of Smn protein (Smn protein) | EC1.5x (concentration giving 1.5-fold Smn protein increase) (Smn protein) [nM] |
| --- | --- | --- | --- | --- |
| 218 to 220 °C | CCN(CC)C1CN(c2ccc3cc(-c4cn5cc(C)nc(C)c5n4)c(=O)oc3c2)C1 [Compound 944, 7-[3-(diethylamino)azetidin-1-yl]-3-(6,8-dimethylimidazo[1,2-a]pyrazin-2-yl)-2H-chromen-2-one] | < 0.1 | **** (fold increase between >1.5 and ≤1.65) | 300 to 1000 |
| 186 to 188 °C | Cc1cn2cc(-c3cc4ccc(OCCN[C@@H](C)CO)cc4oc3=O)nc2c(C)n1 [Compound 947, 3-(6,8-dimethylimidazo[1,2-a]pyrazin-2-yl)-7-(2-{[(2S)-1-hydroxypropan-2-yl]amino}ethoxy)-2H-chromen-2-one] | < 0.1 | **** (fold increase between >1.5 and ≤1.65) | < 300 |
| 212 to 216 °C | Cc1cn2cc(-c3cc4ccc(CCCN)cc4oc3=O)nc2c(C)n1 [Cpd 927, 7-(3-aminopropyl)-3-(6,8-dimethylimidazo[1,2-a]pyrazin-2-yl)-2H-chromen-2-one] | 1 to 3 | ** (fold increase between >1.2 and ≤1.35) | – |

Source: USRE47689E1, “Compounds for treating spinal muscular atrophy” (PTC Therapeutics, Inc., priority 2011, dated 2019)
